Experiments:
Format in all cases: in vivo
[1] = system: morningglory (Ipomea lacunosa or Ipomea hederacea); assay: Preemergence herbicidal activity, morningglory; details: Rate of Application 0.3 Kg/Ha, examined after 12-17 days
[2] = system: morningglory (Ipomea lacunosa or Ipomea hederacea); assay: Postemergence herbicidal activity, morningglory; details: rate of application 0.3 Kg/Ha, rated after 12-17 days
[3] = system: green foxtail (Setaria viridis); assay: Postemergence herbicidal activity, green foxtail; details: rate of application 0.3 Kg/Ha, rated after 12-17 days
[4] = system: velvetleaf (Abutilon theophrasti); assay: Preemergence herbicidal activity, velvetleaf; details: Rate of Application 0.3 Kg/Ha, examined after 12-17 days
[5] = system: common chickweed (Stellaria media); assay: Preemergence herbicidal activity, chickweed; details: Rate of Application 0.3 Kg/Ha, examined after 12-17 days
[6] = system: blackgrass (Aloepecurus myosuroides); assay: Preemergence herbicidal activity, blackgrass; details: Rate of Application 0.3 Kg/Ha, examined after 12-17 days
Method: The benzofused heterocyclic compounds of this invention were tested for pre- and postemergence herbicidal activity using a variety of crops and weeds. The test plants included soybean (Glycine max var. Winchester), field corn (Zea mays var. Pioneer 3732), wheat (Triticum aestivum var. Lew), morningglory (Ipomea lacunosa or Ipomea hederacea), velvetleaf (Abutilon theophrasti), green foxtail (Setaria viridis), Johnsongrass (Sorghum halepense), blackgrass (Aloepecurus myosuroides), common chickweed (Stellaria media), and common cocklebur (Xanthium strumarium L.).
For preemergence testing, two disposable fiber flats (8 cm×15 cm×25 cm) for each rate of application of each candidate herbicide were filled to an approximate depth of 6.5 cm with steam-sterilized sandy loam soil. The soil was leveled and impressed with a template to provide five evenly spaced furrows 13 cm long and 0.5 cm deep in each flat. Seeds of soybean, wheat, corn, green foxtail, and johnsongrass were planted in the furrows of the first flat, and seeds of velvetleaf, morningglory, common chickweed, cocklebur, and blackgrass were planted in the furrows of the second flat. The five-row template was employed to firmly press the seeds into place. A topping soil of equal portions of sand and sandy loam soil was placed uniformly on top of each flat to a depth of approximately 0.5 cm. Flats for postemergence testing were prepared in the same manner except that they were planted 9-14 days prior to the preemergence flats and were placed in a greenhouse and watered, thus allowing the seeds to germinate and the foliage to develop.
In both pre- and postemergence tests, a stock solution of the candidate herbicide was prepared by dissolving 0.27 g of the compound in 20 mL of water/acetone (50/50) containing 0.5% v/v sorbitan monolaurate. For an application rate of 3000 g/ha of herbicide a 10 mL portion of the stock solution was diluted with water/acetone (50/50) to 45 mL.
The preemergence flats were initially subjected to a light water spray. The four flats were placed two by two along a conveyor belt (i.e., the two preemergence followed by the two postemergence flats). The conveyor belt fed under a spray nozzle mounted about ten inches above the post-emergent foliage. The preemergent flats were elevated on the belt so that the soil surface was at the same level below the spray nozzle as the foliage canopy of the postemergent plants. The spray of herbicidal solution was commenced and once stabilized, the flats were passed under the spray at a speed to receive a coverage equivalent of 100 L/ha. At this coverage the application rates are those shown in the above table for the individual herbicidal solutions. The preemergence flats were watered immediately thereafter, placed in the greenhouse and watered regularly at the soil surface. The postemergence flats were immediately placed in the green-house and not watered until 24 hours after treatment with the test solution. Thereafter they were regularly watered at ground level. After 12-17 days the plants were examined and the phytotoxicity data were recorded.
Phytotoxicity data were taken as percent control. Percent control was determined by a method similar to the 0 to 100 rating system disclosed in “Research Methods in Weed Science,” 2nd ed., B. Truelove, Ed.; Southern Weed Science Society; Auburn University, Auburn, Ala., 1977.

[7] = system: field corn (Zea mays var. Pioneer 3732); assay: Preemergence herbicidal activity, corn; details: Rate of Application 0.3 Kg/Ha, examined after 12-17 days
[8] = system: Johnsongrass (Sorghum halepense); assay: Postemergence herbicidal activity, johnsongrass; details: rate of application 0.3 Kg/Ha, rated after 12-17 days
[9] = system: common cocklebur (Xanthium strumarium L.); assay: Postemergence herbicidal activity, cocklebur; details: rate of application 0.3 Kg/Ha, rated after 12-17 days
[10] = system: field corn (Zea mays var. Pioneer 3732); assay: Postemergence herbicidal activity, corn; details: rate of application 0.3 Kg/Ha, rated after 12-17 days
[11] = system: common chickweed (Stellaria media); assay: Postemergence herbicidal activity, chickweed; details: rate of application 0.3 Kg/Ha, rated after 12-17 days
[12] = system: velvetleaf (Abutilon theophrasti); assay: Postemergence herbicidal activity, velvetleaf; details: rate of application 0.3 Kg/Ha, rated after 12-17 days
[13] = system: Johnsongrass (Sorghum halepense); assay: Preemergence herbicidal activity, johnsongrass; details: Rate of Application 0.3 Kg/Ha, examined after 12-17 days
[14] = system: wheat (Triticum aestivum var. Lew); assay: Preemergence herbicidal activity, wheat; details: Rate of Application 0.3 Kg/Ha, examined after 12-17 days
[15] = system: soybean (Glycine max var. Winchester); assay: Preemergence herbicidal activity, soybean; details: Rate of Application 0.3 Kg/Ha, examined after 12-17 days
[16] = system: green foxtail (Setaria viridis); assay: Preemergence herbicidal activity, green foxtail; details: Rate of Application 0.3 Kg/Ha, examined after 12-17 days
[17] = system: soybean (Glycine max var. Winchester); assay: Postemergence herbicidal activity, soybean; details: rate of application 0.3 Kg/Ha, rated after 12-17 days
[18] = system: wheat (Triticum aestivum var. Lew); assay: Postemergence herbicidal activity, wheat; details: rate of application 0.3 Kg/Ha, rated after 12-17 days
[19] = system: common cocklebur (Xanthium strumarium L.); assay: Preemergence herbicidal activity, cocklebur; details: Rate of Application 0.3 Kg/Ha, examined after 12-17 days

| Structure (SMILES) | PREEMERGENCE HERBICIDAL ACTIVITY (% CONTROL) IPOSS [1] | Postemergence herbicidal activity (% control) IPOSS [2] | Postemergence herbicidal activity (% control) SETVI [3] | PREEMERGENCE HERBICIDAL ACTIVITY (% CONTROL) ABUTH [4] | PREEMERGENCE HERBICIDAL ACTIVITY (% CONTROL) STEME [5] | PREEMERGENCE HERBICIDAL ACTIVITY (% CONTROL) ALOMY [6] | PREEMERGENCE HERBICIDAL ACTIVITY (% CONTROL) CRN [7] | Postemergence herbicidal activity (% control) SORHA [8] | Postemergence herbicidal activity (% control) XANPE [9] | Postemergence herbicidal activity (% control) CRN [10] | Postemergence herbicidal activity (% control) STEME [11] | Postemergence herbicidal activity (% control) ABUTH [12] | PREEMERGENCE HERBICIDAL ACTIVITY (% CONTROL) SORHA [13] | PREEMERGENCE HERBICIDAL ACTIVITY (% CONTROL) WHT [14] | PREEMERGENCE HERBICIDAL ACTIVITY (% CONTROL) SOY [15] | PREEMERGENCE HERBICIDAL ACTIVITY (% CONTROL) SETVI [16] | Postemergence herbicidal activity (% control) SOY [17] | Postemergence herbicidal activity (% control) WHT [18] | PREEMERGENCE HERBICIDAL ACTIVITY (% CONTROL) XANPE [19] |
| --- | --- | --- | --- | --- | --- | --- | --- | --- | --- | --- | --- | --- | --- | --- | --- | --- | --- | --- | --- |
| Cn1c(C(F)(F)F)cc(=O)n(-c2c(F)cc(Br)c3oc(COc4ccccc4)nc23)c1=O [Compound 99] | 100% | 100% | 70% | 100% | 100% | 60% | 60% | 65% | 70% | 80% | 95% | 100% | 65% | 50% | 40% | 100% | 80% | 40% | – |
| CC(=O)Nc1nc2c(-n3c(=O)cc(C(F)(F)F)n(C)c3=O)c(F)cc(Br)c2o1 [Compound 43] | 100% | 100% | 50% | 100% | 10% | 60% | 80% | 50% | 50% | 70% | 70% | 100% | 80% | 40% | 50% | 70% | 80% | 30% | – |
| Cn1c(C(F)(F)F)cc(=O)n(-c2ccc(Cl)c3cc(C(N)=O)oc23)c1=O [Compound 269] | 100% | 80% | 70% | 100% | 100% | 70% | 80% | 60% | – | 70% | 80% | 100% | 75% | 30% | 60% | 100% | 90% | 40% | 100% |
| CN(C)C(=O)c1cc2c(Cl)ccc(-n3c(=O)cc(C(F)(F)F)n(C)c3=O)c2o1 [Compound 271] | 100% | 100% | 70% | 100% | 100% | 80% | 90% | 50% | – | 60% | 100% | 100% | 90% | 70% | 80% | 100% | 80% | 40% | 100% |
| Cn1c(C(F)(F)F)cc(=O)n(-c2ccc(Cl)c3cc(C(C)(C)C)oc23)c1=O [Compound 226] | 90% | 95% | 100% | 100% | 90% | – | 70% | 80% | 90% | 80% | 80% | 100% | 80% | 50% | 70% | 100% | 70% | 40% | 60% |

From patent publication US6352958B1, “Cycloimido-substituted benzofused heterocyclic herbicides” (FMC Corporation, priority 1997, dated 2002)
